According to patent US20250368627A1, “PYRAZOLESULFONAMIDES AS ANTITUMOR AGENTS” (Peloton Therapeutics, Inc., a fully owned subsidiary of …, priority 2019, published 2025):

How the values were obtained:
[1] = target: T1, DDB1DB/DCAF15 and RBM39 R1R2 complex (Homo sapiens, UniProt Q14498+Q66K64); assay: DCAF15 RBM39 Complex Formation Assay (FRET); format: binding; details: FRET ratio Em 665/Em 615, incubated overnight at 4° C.
T1 construct: Amino acids 150 to 331 of RBM39 were cloned into pGEX4T3; GST (from vector pGEX4T3); TEV cleavage site (N); made in house; host or cells: DDB1DB/His-DCAF15: baculovirus/Sf9 co-expression; RBM39 R1R2: E. coli (pGEX4T3)
How it was run: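 Ternary complex formation read by TR-FRET (Em 665/615, excitation 340 nm) after overnight incubation at 4° C of 20 nM baculovirus DDB1DB/His-DCAF15 and 50 nM E. coli RBM39 RRM1-RRM2 FLAG fragment with 14-point, 3-fold compound dilutions from 1 μM; EC50 from 4-parameter fit.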

[2] = system: HCT116 human colorectal carcinoma cells; assay: CellTiter-Glo Luminescent Cell Viability Assay; format: cell-based; details: HCT-116, 72 h, 3 days
How it was run: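 CellTiter-Glo luminescence gave viability after 3 days of compound exposure in HCT116 cells grown in DMEM/10% FBS. Final concentrations ran from 5 to 0.0002 […] in 1:3 steps, each in triplicate, with IC50 derived from the curves.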

T1 sequence (Q66K64 whole entry, the tested form may be a part): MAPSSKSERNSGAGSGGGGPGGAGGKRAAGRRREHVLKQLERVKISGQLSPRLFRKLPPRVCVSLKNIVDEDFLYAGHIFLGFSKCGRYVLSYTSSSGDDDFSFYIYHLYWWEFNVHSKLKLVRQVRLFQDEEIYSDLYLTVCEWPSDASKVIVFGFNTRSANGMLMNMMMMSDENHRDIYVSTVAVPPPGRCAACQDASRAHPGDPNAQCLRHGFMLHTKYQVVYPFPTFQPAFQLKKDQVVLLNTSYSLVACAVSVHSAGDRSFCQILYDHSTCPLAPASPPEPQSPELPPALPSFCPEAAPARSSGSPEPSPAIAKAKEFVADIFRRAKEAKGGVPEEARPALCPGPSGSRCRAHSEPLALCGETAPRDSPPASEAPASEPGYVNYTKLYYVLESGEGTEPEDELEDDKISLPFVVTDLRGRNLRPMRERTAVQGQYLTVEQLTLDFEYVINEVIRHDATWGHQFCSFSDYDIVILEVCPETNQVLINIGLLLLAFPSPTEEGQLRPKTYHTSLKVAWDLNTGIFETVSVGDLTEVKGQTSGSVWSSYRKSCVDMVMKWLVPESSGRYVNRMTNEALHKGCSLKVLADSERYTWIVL
T1 sequence (Q14498 150-331): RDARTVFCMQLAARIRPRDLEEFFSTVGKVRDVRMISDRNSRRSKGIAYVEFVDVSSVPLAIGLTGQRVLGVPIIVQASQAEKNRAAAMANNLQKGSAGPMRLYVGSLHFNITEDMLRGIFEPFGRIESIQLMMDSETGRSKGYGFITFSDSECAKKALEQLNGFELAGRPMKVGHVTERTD
T1 sequence (Q16531 with tags, fused parts or gaps DEL396-708 partner): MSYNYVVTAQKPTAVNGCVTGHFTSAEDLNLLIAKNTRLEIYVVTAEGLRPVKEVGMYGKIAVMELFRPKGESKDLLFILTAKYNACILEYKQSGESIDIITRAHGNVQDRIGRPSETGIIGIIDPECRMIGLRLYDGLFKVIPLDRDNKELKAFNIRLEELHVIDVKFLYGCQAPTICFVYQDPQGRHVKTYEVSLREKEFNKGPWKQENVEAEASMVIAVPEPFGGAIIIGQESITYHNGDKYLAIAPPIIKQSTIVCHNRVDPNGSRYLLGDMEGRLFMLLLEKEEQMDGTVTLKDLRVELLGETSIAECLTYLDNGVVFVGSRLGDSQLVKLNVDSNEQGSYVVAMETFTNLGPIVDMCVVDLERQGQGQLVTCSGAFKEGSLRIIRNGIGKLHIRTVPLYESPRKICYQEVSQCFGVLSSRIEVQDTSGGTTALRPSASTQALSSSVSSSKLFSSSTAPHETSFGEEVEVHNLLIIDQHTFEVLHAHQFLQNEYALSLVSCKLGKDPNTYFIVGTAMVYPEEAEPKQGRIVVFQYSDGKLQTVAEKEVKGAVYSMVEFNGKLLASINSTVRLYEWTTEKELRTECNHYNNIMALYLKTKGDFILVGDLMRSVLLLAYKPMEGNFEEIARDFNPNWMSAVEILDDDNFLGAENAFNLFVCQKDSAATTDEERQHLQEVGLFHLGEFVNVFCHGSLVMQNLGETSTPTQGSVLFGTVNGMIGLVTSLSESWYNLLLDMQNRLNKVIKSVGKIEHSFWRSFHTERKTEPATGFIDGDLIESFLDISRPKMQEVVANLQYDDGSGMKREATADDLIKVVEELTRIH

Row | SMILES | IC50 [1] [nM] | EC50 [2] [nM]
1 | COCC(CO)n1cc(S(=O)(=O)Nc2ccc(Cl)c3c(C#N)c[nH]c23)cn1 (centres unmarked) [Compound 262, N-(4-chloro-3-cyano-1H-indol-7-yl)-1-[1-(hydroxymethyl)-2-methoxy-ethyl]pyrazole-4-sulfonamide] | < 250 | 250 to 1000
2 | C=C(CF)n1cc(S(=O)(=O)Nc2ccc(C)c3c(C#N)c[nH]c23)cn1 [Compound 80, N-(3-cyano-4-methyl-1H-indol-7-yl)-1-[1-(fluoromethyl)vinyl]pyrazole-4-sulfonamide] | < 250 | < 250
3 | Cc1ccc(NS(=O)(=O)c2cnn([C@H](C)[C@@H](C)O)c2)c2[nH]cc(C#N)c12 [Compound 287, N-(3-cyano-4-methyl-1H-indol-7-yl)-1-[(1R,2R)-2-hydroxy-1-methyl-propyl]pyrazole-4-sulfonamide] | < 250 | < 250
4 | CCn1ncc(S(=O)(=O)Nc2ccc(C)c3c(C#N)c[nH]c23)c1F [Compound 102, N-(3-Cyano-4-methyl-1H-indol-7-yl)-1-ethyl-5-fluoro-pyrazole-4-sulfonamide] | < 250 | < 250
5 | N#Cc1c[nH]c2c(NS(=O)(=O)c3cnn(C[C@H](N)C(F)(F)F)c3)ccc(Cl)c12 [Compound 248, 1-[(2S)-2-amino-3,3,3-trifluoro-propyl]-N-(4-chloro-3-cyano-1H-indol-7-yl)pyrazole-4-sulfonamide] | < 250 | 250 to 1000
6 | CC(C)(O)Cn1cc(S(=O)(=O)Nc2ccc(Cl)c3c(C#N)c[nH]c23)c(F)n1 [Compound 204, N-(4-chloro-3-cyano-1H-indol-7-yl)-3-fluoro-1-(2-hydroxy-2-methyl-propyl)pyrazole-4-sulfonamide] | < 250 | > 1000
7 | O=S(=O)(Nc1cccc2c(Cl)c[nH]c12)c1cnn(CC2CNC2)c1 [Compound 43, 1-(azetidin-3-ylmethyl)-N-(3-chloro-1H-indol-7-yl)pyrazole-4-sulfonamide] | < 250 | > 1000
8 | CC(C)(CO)n1cc(S(=O)(=O)Nc2ccc(F)c3c(C#N)c[nH]c23)c(Cl)n1 [Compound 261, 3-chloro-N-(3-cyano-4-fluoro-1H-indol-7-yl)-1-(2-hydroxy-1,1-dimethyl-ethyl)pyrazole-4-sulfonamide] | < 250 | > 1000
9 | N#CCC1(n2cc(S(=O)(=O)Nc3ccc(Cl)c4c(C#N)c[nH]c34)cn2)COC1 [Compound 158, N-(4-chloro-3-cyano-1H-indol-7-yl)-1-[3-(cyanomethyl)oxetan-3-yl]pyrazole-4-sulfonamide] | < 250 | 250 to 1000
10 | Cc1ccc(NS(=O)(=O)c2cnn(C3CCOC3)c2)c2[nH]cc(C#N)c12 (centres unmarked) [Compound 29, N-(3-cyano-4-methyl-1H-indol-7-yl)-1-tetrahydrofuran-3-yl-pyrazole-4-sulfonamide] | < 250 | 250 to 1000
11 | Cc1ccc(NS(=O)(=O)c2cnn(CC(C)(C)O)c2Cl)c2[nH]cc(C#N)c12 [Compound 276, 5-chloro-N-(3-cyano-4-methyl-1H-indol-7-yl)-1-(2-hydroxy-2-methyl-propyl)pyrazole-4-sulfonamide] | < 250 | 250 to 1000
12 | Cc1ccc(NS(=O)(=O)c2cnn(CC3CC3)c2)c2[nH]cc(C#N)c12 [Compound 69, N-(3-cyano-4-methyl-1H-indol-7-yl)-1-(cyclopropylmethyl)pyrazole-4-sulfonamide] | < 250 | < 250
13 | Cc1ccc(NS(=O)(=O)c2cnn(CC3CCC3)c2)c2[nH]cc(C#N)c12 [Compound 78, N-(3-cyano-4-methyl-1H-indol-7-yl)-1-(cyclobutylmethyl)pyrazole-4-sulfonamide] | < 250 | 250 to 1000
14 | N#CCn1cc(S(=O)(=O)Nc2cccc3c(Cl)c[nH]c23)cn1 [Compound 14, N-(3-chloro-1H-indol-7-yl)-1-(cyanomethyl)pyrazole-4-sulfonamide] | < 250 | > 1000
15 | N#Cc1c[nH]c2c(NS(=O)(=O)c3cnn([C@H]4CNC[C@H]4F)c3)ccc(Cl)c12 [Compound 152, N-(4-chloro-3-cyano-1H-indol-7-yl)-1-[(3S,4R)-4-fluoropyrrolidin-3-yl]pyrazole-4-sulfonamide] | < 250 | > 1000
16 | C[C@@H](CO)n1cc(S(=O)(=O)Nc2ccc(F)c3c(C#N)c[nH]c23)cn1 [Compound 267, N-(3-cyano-4-fluoro-1H-indol-7-yl)-1-[(1S)-2-hydroxy-1-methyl-ethyl]pyrazole-4-sulfonamide] | < 250 | 250 to 1000
17 | Cc1ccc(NS(=O)(=O)c2cnn(C3(CF)COC3)c2)c2[nH]cc(C#N)c12 [Compound 117, N-(3-cyano-4-methyl-1H-indol-7-yl)-1-[3-(fluoromethyl)oxetan-3-yl]pyrazole-4-sulfonamide] | < 250 | < 250
18 | COC1CC(n2cc(S(=O)(=O)Nc3cccc4c(Cl)c[nH]c34)cn2)C1 (centres unmarked) [Compound 190, N-(3-chloro-1H-indol-7-yl)-1-(3-methoxycyclobutyl)pyrazole-4-sulfonamide] | < 250 | 250 to 1000
19 | Cc1ccc(NS(=O)(=O)c2cnn(C)c2F)c2[nH]cc(C#N)c12 [Compound 112, N-(3-cyano-4-methyl-1H-indol-7-yl)-5-fluoro-1-methyl-pyrazole-4-sulfonamide] | < 250 | 250 to 1000
20 | Cc1ccc(NS(=O)(=O)c2cnn(CF)c2N)c2[nH]cc(C#N)c12 [Compound 308, 5-amino-N-(3-cyano-4-methyl-1H-indol-7-yl)-1-(fluoromethyl)pyrazole-4-sulfonamide] | < 250 | 250 to 1000
21 | Cc1ccc(NS(=O)(=O)c2cnn(S(=O)(=O)c3ccccc3)c2)c2[nH]cc(C#N)c12 [Compound 101, 1-(benzenesulfonyl)-N-(3-cyano-4-methyl-1H-indol-7-yl)pyrazole-4-sulfonamide] | < 250 | 250 to 1000

Results, then the compound that gave them:

Row | IC50 [1] [nM] | EC50 [2] [nM] | SMILES
22 | < 250 | < 250 | Cc1ccc(NS(=O)(=O)c2cnn(CC(F)(F)F)c2)c2[nH]cc(C#N)c12 [Compound 60, N-(3-cyano-4-methyl-1H-indol-7-yl)-1-(2,2,2-trifluoroethyl)pyrazole-4-sulfonamide]
23 | < 250 | < 250 | Cc1ccc(NS(=O)(=O)c2cnn(C(F)F)c2N)c2[nH]cc(C#N)c12 [Compound 284, 5-amino-N-(3-cyano-4-methyl-1H-indol-7-yl)-1-(difluoromethyl)pyrazole-4-sulfonamide]
24 | < 250 | 250 to 1000 | Cc1ccc(NS(=O)(=O)c2cnn(C(F)F)c2)c2[nH]cc(C#N)c12 [Compound 11, N-(3-cyano-4-methyl-1H-indol-7-yl)-1-(difluoromethyl)pyrazole-4-sulfonamide]
25 | < 250 | 250 to 1000 | Cc1ccc(NS(=O)(=O)c2cnn(Cc3ccccc3)c2)c2[nH]cc(C#N)c12 [Compound 89, 1-benzyl-N-(3-cyano-4-methyl-1H-indol-7-yl)pyrazole-4-sulfonamide]
26 | < 250 | 250 to 1000 | N#Cc1c[nH]c2c(NS(=O)(=O)c3cnn(C4(CO)COC4)c3)ccc(Cl)c12 [Compound 165, N-(4-chloro-3-cyano-1H-indol-7-yl)-1-[3-(hydroxymethyl)oxetan-3-yl]pyrazole-4-sulfonamide]
27 | < 250 | 250 to 1000 | C[C@@H](O)Cn1cc(S(=O)(=O)Nc2ccc(Cl)c3c(C#N)c[nH]c23)cn1 [Compound 197, N-(4-chloro-3-cyano-1H-indol-7-yl)-1-[(2R)-2-hydroxypropyl]pyrazole-4-sulfonamide]
28 | < 250 | > 1000 | O=S(=O)(Nc1ccc(C(F)(F)F)c2c(Cl)c[nH]c12)c1cnn(CC(F)F)c1 [Compound 103, N-[3-chloro-4-(trifluoromethyl)-1H-indol-7-yl]-1-(2,2-difluoroethyl)pyrazole-4-sulfonamide]
29 | < 250 | 250 to 1000 | CC(C)(CO)n1cc(S(=O)(=O)Nc2ccc(F)c3c(C#N)c[nH]c23)cn1 [Compound 224, N-(3-cyano-4-fluoro-1H-indol-7-yl)-1-(2-hydroxy-1,1-dimethyl-ethyl)pyrazole-4-sulfonamide]
30 | < 250 | 250 to 1000 | N#Cc1c[nH]c2c(NS(=O)(=O)c3cnn([C@H]4C[C@H](O)C4)c3)ccc(Cl)c12 [Compound 175, N-(4-chloro-3-cyano-1H-indol-7-yl)-1-(3-hydroxycyclobutyl)pyrazole-4-sulfonamide]
31 | < 250 | < 250 | Cc1ccc(NS(=O)(=O)c2cnn(C(F)CO)c2)c2[nH]cc(C#N)c12 (centres unmarked) [Compound 297, N-(3-cyano-4-methyl-1H-indol-7-yl)-1-(1-fluoro-2-hydroxy-ethyl)pyrazole-4-sulfonamide]
32 | < 250 | > 1000 | Cc1ccc(NS(=O)(=O)c2cnn(CC(=O)O)c2)c2[nH]cc(C#N)c12 [Compound 134, 2-[4-[(3-cyano-4-methyl-1H-indol-7-yl)sulfamoyl]pyrazol-1-yl]acetic acid]
33 | < 250 | < 250 | Cc1ccc(NS(=O)(=O)c2cnn(C)c2N)c2[nH]cc(C#N)c12 [Compound 161, 5-amino-N-(3-cyano-4-methyl-1H-indol-7-yl)-1-methyl-pyrazole-4-sulfonamide]
34 | < 250 | > 1000 | COC(=O)Cn1cc(S(=O)(=O)Nc2ccc(C)c3c(C#N)c[nH]c23)cn1 [Compound 133, methyl 2-[4-[(3-cyano-4-methyl-1H-indol-7-yl)sulfamoyl]pyrazol-1-yl]acetate]
